Results on twelve compounds are retold here after ChEMBL document CHEMBL1201862, “PubChem BioAssay data set” (2004).

Each structure is given as a SMILES string. Active and inactive are the calls of the source.

For one test, the target named is Bcl-2-like protein 10 (Homo sapiens, UniProt Q9HD36). As to the kind of experiment: displacers of TR3 peptide from Bcl-B, primary screen, selectivity assay for Bfl-1 inhibitor project, biochemical, fluorescence polarization, FITC-TR3 peptide (AID 748).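 Note: fluorescence polarization from a fluorescein-labelled TR3 peptide binding purified Bcl-B.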
The target in a further test is Large T antigen (Simian virus 40, UniProt P03070). The class given is functional, Betapolyomavirus macacae.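 Note: Confirmatory-stage PubChem screen for compounds that inhibit SV40 T antigen.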
Another test addresses T1, Caspase-3 (Homo sapiens, UniProt P42574).
T1 sequence (P42574 whole entry): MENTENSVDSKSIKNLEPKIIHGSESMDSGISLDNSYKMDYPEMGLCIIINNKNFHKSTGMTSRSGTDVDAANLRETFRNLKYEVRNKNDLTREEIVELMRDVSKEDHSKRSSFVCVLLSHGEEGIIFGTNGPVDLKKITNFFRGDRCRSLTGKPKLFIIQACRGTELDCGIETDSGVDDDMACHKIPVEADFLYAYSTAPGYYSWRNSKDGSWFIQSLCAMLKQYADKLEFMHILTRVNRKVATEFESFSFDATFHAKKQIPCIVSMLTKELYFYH
The class given is functional.

The target in test [1] is T2, Sentrin-specific protease 7 (Homo sapiens, UniProt Q9BQF6).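 Note: Luminescence-based dose-response confirmation of ultra-high-throughput screening hits, measuring inhibition of SENP7.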
T2 sequence (Q9BQF6 whole entry): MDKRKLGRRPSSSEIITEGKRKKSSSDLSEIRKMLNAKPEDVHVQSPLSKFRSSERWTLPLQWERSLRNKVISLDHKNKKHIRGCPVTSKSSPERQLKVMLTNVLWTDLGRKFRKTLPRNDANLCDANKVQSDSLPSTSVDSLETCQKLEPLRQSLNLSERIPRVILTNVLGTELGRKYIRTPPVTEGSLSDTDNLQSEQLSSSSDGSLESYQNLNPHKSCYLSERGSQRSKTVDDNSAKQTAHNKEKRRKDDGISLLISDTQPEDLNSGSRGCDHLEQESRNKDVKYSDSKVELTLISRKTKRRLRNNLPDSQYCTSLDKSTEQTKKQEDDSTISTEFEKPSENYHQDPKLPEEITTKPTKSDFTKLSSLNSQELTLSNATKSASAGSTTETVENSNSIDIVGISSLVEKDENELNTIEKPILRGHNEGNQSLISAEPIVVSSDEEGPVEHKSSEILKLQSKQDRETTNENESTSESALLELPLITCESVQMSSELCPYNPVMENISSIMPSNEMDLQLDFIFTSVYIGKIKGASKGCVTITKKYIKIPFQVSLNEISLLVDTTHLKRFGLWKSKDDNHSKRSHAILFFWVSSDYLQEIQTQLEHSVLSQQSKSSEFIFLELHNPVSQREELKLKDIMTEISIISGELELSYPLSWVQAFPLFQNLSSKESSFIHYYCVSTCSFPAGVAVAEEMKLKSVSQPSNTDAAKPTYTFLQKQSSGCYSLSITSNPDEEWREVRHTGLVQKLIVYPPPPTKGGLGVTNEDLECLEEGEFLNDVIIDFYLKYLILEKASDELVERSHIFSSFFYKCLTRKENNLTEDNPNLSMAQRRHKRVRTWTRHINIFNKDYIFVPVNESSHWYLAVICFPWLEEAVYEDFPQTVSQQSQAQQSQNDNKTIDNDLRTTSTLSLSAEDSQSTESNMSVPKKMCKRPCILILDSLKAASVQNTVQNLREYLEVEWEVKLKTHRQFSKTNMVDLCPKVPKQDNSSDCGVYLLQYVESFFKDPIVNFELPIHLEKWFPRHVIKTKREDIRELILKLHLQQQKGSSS
The class given is functional.

The target of test [2] is T3, Sentrin-specific protease 6 (Homo sapiens, UniProt Q9GZR1).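 Note: Luminescence-based dose-response confirmatory assay of SENP6 inhibition, following up an ultra-high-throughput screen.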
T3 sequence (Q9GZR1 whole entry): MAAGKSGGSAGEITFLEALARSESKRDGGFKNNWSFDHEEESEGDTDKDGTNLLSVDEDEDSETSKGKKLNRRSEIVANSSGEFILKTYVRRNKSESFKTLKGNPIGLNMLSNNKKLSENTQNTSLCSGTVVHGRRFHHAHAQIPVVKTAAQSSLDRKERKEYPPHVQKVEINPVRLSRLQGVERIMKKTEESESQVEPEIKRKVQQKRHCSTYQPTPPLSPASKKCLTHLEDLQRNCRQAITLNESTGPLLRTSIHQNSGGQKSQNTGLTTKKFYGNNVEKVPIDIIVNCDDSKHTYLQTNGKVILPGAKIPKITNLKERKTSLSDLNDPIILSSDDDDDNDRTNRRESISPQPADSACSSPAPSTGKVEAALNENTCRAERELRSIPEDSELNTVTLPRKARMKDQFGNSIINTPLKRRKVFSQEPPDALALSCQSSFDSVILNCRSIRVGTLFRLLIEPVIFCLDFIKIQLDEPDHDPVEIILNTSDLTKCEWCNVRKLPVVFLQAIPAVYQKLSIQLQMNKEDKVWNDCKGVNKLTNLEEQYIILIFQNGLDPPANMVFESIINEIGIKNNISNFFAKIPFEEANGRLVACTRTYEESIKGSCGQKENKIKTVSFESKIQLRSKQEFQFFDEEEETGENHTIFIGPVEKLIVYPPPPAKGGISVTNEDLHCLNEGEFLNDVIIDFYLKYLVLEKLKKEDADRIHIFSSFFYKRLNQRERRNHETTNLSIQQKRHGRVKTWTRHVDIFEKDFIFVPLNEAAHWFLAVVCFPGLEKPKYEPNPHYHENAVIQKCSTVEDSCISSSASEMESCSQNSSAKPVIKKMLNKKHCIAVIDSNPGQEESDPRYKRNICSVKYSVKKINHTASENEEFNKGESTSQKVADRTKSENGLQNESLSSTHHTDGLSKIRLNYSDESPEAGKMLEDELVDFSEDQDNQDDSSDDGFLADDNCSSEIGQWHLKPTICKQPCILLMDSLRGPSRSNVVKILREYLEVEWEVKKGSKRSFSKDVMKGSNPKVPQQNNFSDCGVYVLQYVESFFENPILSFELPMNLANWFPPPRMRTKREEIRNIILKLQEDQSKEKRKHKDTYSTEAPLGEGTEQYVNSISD
The class given is functional.

The target of test [3] is T4, Sentrin-specific protease 8 (Homo sapiens, UniProt Q96LD8).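 Note: luminescence read-out of SENP8 inhibition, dose-response confirmation following an ultra-high-throughput screen.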
T4 sequence (Q96LD8 whole entry): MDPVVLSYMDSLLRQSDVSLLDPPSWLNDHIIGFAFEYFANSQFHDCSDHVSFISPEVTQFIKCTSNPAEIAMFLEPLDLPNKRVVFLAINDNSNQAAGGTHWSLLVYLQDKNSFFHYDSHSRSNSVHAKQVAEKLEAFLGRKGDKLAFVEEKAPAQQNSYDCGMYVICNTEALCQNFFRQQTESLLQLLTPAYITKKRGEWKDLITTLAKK
The class given is functional.

Another test addresses Mu-type opioid receptor (Homo sapiens, UniProt P35372). As to the kind of experiment: SAR Analysis of Antagonists of the MOR Receptor using an Image-Based Assay - Set 3. [Related pubchem assays (depositor defined):AID1777, AID1785, AID1786, AID1966, AID2133, AID2136, AID2284, AID2285, AID2420]. The class given is functional.
For test [4], the target named is Delta-type opioid receptor (Homo sapiens, UniProt P41143). As to the kind of experiment: SAR Analysis of Antagonists of the DOR Receptor using an Image-Based Assay - Set 3. [Related pubchem assays (depositor defined):AID1777, AID1785]. The class given is functional.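 Note: U2OS cells expressing DOR1 and beta-arrestin GFP stimulated with 100 nM SNC80; imaging of GFP-tagged beta-arrestin moving into spots after receptor activation.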
Test [5] concerns the target T5, Kappa-type opioid receptor (Homo sapiens, UniProt P41145). As to the kind of experiment: SAR analysis of small molecule antagonists of the kappa opioid receptor via a luminescent beta-arrestin assay - Set 3. [Related pubchem assays (depositor defined):AID1777, AID1778, AID1785, AID1786, AID1966, AID2133, AID2136, AID2285, AID2495]. The class given is functional.
Test [6] addresses T5, Kappa-type opioid receptor. As to the kind of experiment: SAR analysis of Antagonists of the Kappa Opioid Receptor (KOR) using an Image-Based Assay - Set 3. [Related pubchem assays (depositor defined):AID1777, AID1785]. The class given is functional.
The next test has as its target CAAX prenyl protease 2 (Saccharomyces cerevisiae S288c, UniProt Q03530). Type of test: biochemical.
The target of test [7] is T6, Eukaryotic translation initiation factor 2-alpha kinase 3 (Homo sapiens, UniProt Q9NZJ5).
T6 sequence (Q9NZJ5 whole entry): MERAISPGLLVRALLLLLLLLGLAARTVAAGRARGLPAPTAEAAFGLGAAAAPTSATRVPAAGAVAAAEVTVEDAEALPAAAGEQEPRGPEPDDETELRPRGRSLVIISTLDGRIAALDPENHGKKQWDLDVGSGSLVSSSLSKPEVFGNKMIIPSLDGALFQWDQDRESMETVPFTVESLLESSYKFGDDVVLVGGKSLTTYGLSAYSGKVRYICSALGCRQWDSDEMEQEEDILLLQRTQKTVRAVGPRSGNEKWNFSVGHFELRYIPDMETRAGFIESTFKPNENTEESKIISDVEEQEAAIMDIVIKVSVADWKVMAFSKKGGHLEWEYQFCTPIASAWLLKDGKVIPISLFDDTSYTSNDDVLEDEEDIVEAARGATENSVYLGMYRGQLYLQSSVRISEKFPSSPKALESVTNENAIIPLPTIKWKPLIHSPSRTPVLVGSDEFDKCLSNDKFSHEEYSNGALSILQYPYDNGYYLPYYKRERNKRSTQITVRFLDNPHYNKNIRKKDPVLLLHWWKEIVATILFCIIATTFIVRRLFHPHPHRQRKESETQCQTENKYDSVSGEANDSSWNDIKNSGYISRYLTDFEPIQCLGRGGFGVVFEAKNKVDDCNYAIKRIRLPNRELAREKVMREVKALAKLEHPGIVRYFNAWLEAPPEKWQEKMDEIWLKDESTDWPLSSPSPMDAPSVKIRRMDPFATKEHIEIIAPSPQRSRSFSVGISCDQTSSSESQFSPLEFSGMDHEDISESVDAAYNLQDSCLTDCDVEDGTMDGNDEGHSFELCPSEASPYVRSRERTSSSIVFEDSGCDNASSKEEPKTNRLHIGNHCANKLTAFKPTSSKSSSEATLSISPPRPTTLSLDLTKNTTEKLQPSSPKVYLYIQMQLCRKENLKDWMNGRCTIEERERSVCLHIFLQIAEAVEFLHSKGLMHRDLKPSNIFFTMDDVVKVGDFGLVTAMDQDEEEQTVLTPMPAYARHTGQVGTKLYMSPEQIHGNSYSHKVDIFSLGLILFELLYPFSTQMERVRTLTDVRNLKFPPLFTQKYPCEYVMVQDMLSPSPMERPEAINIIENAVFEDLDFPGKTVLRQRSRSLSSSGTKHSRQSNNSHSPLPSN
As to the kind of experiment: Dose response cell-based high-throughput screening assay to measure PERK inhibition. [Related pubchem assays: 1416 ]. Type of test: functional.

The target of test [8] is T6, Eukaryotic translation initiation factor 2-alpha kinase 3. Briefly: Counterscreen assay for PERK inhibitors: Dose response cell-based high throughput screening assay to measure inhibition of PERK at 6 hours. [Related pubchem assays: 1522, 1416 ]. The class given is functional.
The target in test [9] is Eukaryotic translation initiation factor 4H (Homo sapiens, UniProt Q15056). As to the kind of experiment: eIF4H inhibition in translation initiation, SAR follow-up (AID 435011). The class given is functional.
Test [10] concerns the target Polyadenylate-binding protein 1 (Homo sapiens, UniProt P11940). As to the kind of experiment: PABP inhibition in translation initiation, SAR follow-up (AID 435018). Type of test: functional.
For test [11], the target named is Melanin-concentrating hormone receptor 1 (Homo sapiens, UniProt Q99705). Briefly: Late-stage fluorescence-based counterscreen for antagonists of the G-protein coupled receptor 7 (GPR7): cell-based dose response assay to identify antagonists of the melanin-concentrating hormone receptor 1 (MCHR1). [Related pubchem assays (depositor defined):AID1861, AID1880, AID1952, AID2148, AID2251, AID2257, AID485339]. Type of test: functional. (In general: Counterscreens check selectivity or assay interference.);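 note: stimulated with 30 nM MCH peptide agonist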

The target of test [12] is Acyl-homoserine lactone acylase PvdQ (Pseudomonas aeruginosa (strain LESB58), UniProt Q9I194). As to the kind of experiment: P. aeruginosa PvdQ acylase inhibitors, dose response, biochemical, fluorescence, plate reader and imaging, cherry-picks (AID 493231).
Sequence of Acyl-homoserine lactone acylase PvdQ (Q9I194 24-193 limits assumed): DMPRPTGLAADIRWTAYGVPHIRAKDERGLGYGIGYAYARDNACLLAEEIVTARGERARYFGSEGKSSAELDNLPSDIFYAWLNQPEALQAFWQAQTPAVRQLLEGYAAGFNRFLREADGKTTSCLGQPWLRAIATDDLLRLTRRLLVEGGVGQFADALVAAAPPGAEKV
Sequence of Acyl-homoserine lactone acylase PvdQ (Q9I194 217-762 limits assumed): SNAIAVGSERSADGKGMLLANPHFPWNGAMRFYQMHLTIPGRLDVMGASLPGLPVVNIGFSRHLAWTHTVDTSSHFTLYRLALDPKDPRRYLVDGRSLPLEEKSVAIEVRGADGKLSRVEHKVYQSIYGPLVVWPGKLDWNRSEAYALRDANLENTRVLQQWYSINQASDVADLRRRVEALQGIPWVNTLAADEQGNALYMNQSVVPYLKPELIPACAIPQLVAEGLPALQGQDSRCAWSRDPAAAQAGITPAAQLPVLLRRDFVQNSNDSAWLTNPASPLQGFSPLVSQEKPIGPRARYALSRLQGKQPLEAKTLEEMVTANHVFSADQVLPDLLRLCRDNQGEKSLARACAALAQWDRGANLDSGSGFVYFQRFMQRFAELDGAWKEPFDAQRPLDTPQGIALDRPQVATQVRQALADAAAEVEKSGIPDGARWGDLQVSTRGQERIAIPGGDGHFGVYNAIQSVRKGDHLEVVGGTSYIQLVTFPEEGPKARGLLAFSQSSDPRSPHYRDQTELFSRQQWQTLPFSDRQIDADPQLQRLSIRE

T5 sequence (P41145 whole entry): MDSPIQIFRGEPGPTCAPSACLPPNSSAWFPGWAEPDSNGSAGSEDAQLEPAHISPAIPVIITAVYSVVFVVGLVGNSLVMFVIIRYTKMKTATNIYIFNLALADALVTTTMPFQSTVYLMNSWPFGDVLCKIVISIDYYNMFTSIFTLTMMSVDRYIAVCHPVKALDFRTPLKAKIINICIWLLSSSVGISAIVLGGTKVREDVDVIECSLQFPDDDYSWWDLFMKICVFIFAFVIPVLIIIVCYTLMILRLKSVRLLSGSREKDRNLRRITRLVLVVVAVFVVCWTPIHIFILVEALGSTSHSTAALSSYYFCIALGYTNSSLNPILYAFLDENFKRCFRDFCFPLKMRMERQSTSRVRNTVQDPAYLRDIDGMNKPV
Sequence of Bcl-2-like protein 10 (Q9HD36 whole entry): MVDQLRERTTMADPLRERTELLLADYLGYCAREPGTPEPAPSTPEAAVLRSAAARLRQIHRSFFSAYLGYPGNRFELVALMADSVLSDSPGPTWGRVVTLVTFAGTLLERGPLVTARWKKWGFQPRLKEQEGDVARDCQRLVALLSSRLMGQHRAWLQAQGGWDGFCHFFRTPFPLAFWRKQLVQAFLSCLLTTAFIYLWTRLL
Sequence of Delta-type opioid receptor (P41143 whole entry): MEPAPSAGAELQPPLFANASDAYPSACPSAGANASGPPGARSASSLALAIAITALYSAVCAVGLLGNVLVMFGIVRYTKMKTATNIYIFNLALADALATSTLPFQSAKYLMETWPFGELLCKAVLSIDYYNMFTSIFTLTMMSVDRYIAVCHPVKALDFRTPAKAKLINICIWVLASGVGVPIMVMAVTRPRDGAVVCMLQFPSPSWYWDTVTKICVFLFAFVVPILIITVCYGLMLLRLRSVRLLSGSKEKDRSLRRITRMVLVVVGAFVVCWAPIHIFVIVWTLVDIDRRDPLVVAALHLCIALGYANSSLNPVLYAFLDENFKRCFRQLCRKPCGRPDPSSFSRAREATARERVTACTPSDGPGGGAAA
Sequence of Melanin-concentrating hormone receptor 1 (Q99705 whole entry): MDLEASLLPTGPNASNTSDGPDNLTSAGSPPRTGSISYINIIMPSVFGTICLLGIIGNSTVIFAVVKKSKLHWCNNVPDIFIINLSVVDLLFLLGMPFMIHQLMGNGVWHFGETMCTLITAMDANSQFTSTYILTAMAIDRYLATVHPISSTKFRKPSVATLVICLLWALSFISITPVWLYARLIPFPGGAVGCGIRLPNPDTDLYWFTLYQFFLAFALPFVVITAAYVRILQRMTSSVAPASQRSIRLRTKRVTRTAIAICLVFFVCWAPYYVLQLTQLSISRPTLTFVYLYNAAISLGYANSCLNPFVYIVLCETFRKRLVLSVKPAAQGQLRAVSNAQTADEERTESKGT
Sequence of Mu-type opioid receptor (P35372 whole entry): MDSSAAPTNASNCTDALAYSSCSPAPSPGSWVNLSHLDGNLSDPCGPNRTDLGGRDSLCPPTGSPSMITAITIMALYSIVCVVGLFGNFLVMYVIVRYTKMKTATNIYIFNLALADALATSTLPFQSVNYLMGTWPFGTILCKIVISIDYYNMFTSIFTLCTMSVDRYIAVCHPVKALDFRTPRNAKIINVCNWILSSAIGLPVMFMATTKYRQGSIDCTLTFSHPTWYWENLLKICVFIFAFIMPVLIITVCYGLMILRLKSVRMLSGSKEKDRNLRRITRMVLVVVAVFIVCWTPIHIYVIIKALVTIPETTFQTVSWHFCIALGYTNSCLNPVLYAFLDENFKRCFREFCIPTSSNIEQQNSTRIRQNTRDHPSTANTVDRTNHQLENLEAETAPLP
Sequence of Polyadenylate-binding protein 1 (P11940 whole entry): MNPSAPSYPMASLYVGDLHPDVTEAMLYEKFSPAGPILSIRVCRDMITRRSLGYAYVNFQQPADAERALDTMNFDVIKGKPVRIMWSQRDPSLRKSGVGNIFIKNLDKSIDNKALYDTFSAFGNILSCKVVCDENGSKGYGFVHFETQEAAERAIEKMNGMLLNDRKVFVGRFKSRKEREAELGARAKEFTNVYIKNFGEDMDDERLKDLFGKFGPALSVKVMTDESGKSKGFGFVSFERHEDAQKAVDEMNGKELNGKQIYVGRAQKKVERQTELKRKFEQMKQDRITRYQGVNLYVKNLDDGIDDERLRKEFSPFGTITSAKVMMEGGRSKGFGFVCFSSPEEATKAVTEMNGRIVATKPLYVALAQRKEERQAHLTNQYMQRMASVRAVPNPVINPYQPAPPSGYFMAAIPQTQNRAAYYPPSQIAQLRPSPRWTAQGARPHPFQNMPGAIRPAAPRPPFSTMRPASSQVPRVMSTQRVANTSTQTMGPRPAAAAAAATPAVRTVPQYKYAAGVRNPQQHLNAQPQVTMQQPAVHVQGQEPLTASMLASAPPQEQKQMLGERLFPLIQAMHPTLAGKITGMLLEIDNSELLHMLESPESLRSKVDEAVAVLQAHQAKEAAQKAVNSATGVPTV
Sequence of CAAX prenyl protease 2 (Q03530 whole entry): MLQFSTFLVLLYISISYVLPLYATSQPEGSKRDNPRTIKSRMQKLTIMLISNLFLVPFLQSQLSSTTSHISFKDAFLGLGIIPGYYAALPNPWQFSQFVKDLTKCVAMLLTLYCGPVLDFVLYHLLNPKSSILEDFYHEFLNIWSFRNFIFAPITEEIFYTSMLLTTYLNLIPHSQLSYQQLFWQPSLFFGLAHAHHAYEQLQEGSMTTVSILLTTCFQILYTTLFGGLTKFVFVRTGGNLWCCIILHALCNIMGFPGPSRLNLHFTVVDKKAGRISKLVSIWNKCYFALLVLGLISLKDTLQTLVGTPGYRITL
Sequence of Large T antigen (P03070 whole entry): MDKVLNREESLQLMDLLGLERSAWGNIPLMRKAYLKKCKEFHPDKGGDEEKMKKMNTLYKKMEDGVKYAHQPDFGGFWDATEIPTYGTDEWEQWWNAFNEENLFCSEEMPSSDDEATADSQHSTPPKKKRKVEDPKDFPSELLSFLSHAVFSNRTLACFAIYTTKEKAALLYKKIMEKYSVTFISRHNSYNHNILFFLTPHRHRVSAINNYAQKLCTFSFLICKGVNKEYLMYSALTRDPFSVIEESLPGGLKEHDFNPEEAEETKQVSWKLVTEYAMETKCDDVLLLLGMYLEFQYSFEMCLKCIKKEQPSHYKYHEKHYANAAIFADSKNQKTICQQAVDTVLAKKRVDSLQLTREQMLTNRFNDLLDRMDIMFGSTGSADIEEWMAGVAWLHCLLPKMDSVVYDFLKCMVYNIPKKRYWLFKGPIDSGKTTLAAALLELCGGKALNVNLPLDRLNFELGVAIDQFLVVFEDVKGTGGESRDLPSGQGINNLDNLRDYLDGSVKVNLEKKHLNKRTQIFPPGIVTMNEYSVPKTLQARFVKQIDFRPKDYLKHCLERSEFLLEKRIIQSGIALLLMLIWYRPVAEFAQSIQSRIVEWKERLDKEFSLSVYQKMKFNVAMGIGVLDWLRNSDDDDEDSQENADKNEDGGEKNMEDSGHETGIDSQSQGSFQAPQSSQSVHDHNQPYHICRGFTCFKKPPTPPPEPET

Consider `Cc1csc(N/N=C/c2ccc(O)c([N+](=O)[O-])c2)n1`, for which the IC50 is > 100 µM (inactive) on Bcl-2-like protein 10; 22.1 µM (active) on Large T antigen; 3.15 µM (active) at Caspase-3; 4.19 µM (active) in test [1]; 9.25 µM (active) in test [2]; 8.45 µM (active) in [3].
Turning to `CN1CCN(CCCNC(=O)Cn2c(=O)c3cccn3c3cccnc32)CC1`, the IC50 at Mu-type opioid receptor was > 32 µM (inactive); in [4], > 32 µM (inactive); in [5], > 20 µM (inactive); in test [6], > 32 µM (inactive).
On to `O=S(=O)(c1ccccc1)c1nc(-c2ccco2)oc1N1CCCCC1`, for which the AC50 at CAAX prenyl protease 2 was 7.38 µM (active).
In the case of `Cc1cnc(O)c([N+](=O)[O-])c1`, the 50% effective concentration (EC50) in test [7] and in test [8] was > 55.7 µM (not active) each time.
As to `O=C(Nc1ccccc1Cl)C1CCN(C(=O)c2cccs2)CC1`, the IC50 in test [9] and in [10] was > 100 µM (inactive) in each case.
In the case of `COc1ccc(Oc2c(Cl)cnn(-c3cccc(C(C)C)c3)c2=O)cc1`, the concentration for half-maximal inhibition (IC50) in test [11] is 1.7 µM (active).
Same read-out and setting: the value for `COc1ccc(Oc2c(Cl)cnn(-c3ccc(C)cc3)c2=O)cc1OC` was 8.2 µM (active).
Consider `Cc1csc2nc(CNS(=O)(=O)N(C)C)cn12`, for which the IC50 at Bcl-2-like protein 10 was > 100 µM (inactive).
Turning to `O=C(NCCN1Cc2ccccc2C1)c1ccc(CNS(=O)(=O)c2ccc(Br)cc2)cc1`, the IC50 was > 32 µM (inactive) on Mu-type opioid receptor, > 32 µM (inactive) in test [4], > 20 µM (inactive) in test [5] and > 32 µM (inactive) in test [6].
On to `O=C(NC1CCCC1)c1cccc(Cl)c1`, for which the AC50 in [12] was 3.13 µM (active).
Still for that read-out and setting: with `O=C(OCc1nc2ccccc2s1)c1ccco1` the figure was 30.3 µM (active).
In the case of `CS(=O)(=O)c1ccccc1C(=O)Nc1cccc2ncccc12`, the half-inhibitory concentration (IC50) in [9] is 16.1 µM (active); in test [10], 20.2 µM (active).

One may read the IC50 as the midpoint of a concentration-inhibition curve. A word on the AC50: it is the midpoint of the concentration-response curve, whichever way the signal moves. The term EC50 denotes the concentration that produces a half-maximal response. The low end stands for a more potent agent, the high end for a less potent agent.
